Laboratory results published in patent US10869878B2, “Vaginal composition and use thereof” (SINGAPORE ZE&Z INTERNATIONAL PTE. LTD, priority 2014, dated 2020).

How the values were obtained:
Assay type in all cases: cell-based
BV-associated bacteria [1] = assay: Acid production by BV-associated bacteria, carbohydrates and antibacterial agents in combination (Experimental Example 3); details: anaerobic, 37° C., 1.5% (w/v) carbohydrate, initial pH 5.4
From the text: (1) Grouping in experiment: • (1) Sucrose-preservative group: containing 1.5% (w/v) sucrose, 0.5% (w/v) sodium propionate, 0.025% (w/v) sodium dehydroacetate, MRS basal medium without carbohydrate, 5% (w/v) calf serum, and 0.45% (w/v) agar, pH5.4; • (2) Isomaltose-preservative group: containing 1.5% (w/v) isomaltose, 0.5% (w/v) sodium propionate, 0.025% (w/v) sodium dehydroacetate, MRS basal medium without carbohydrate, 5% (w/v) calf serum, and 0.45% (w/v) agar, pH5.4; • (3) Isomaltulose-preservative group: containing 1.5% (w/v) isomaltulose, 0.5% (w/v) sodium propionate, 0.025% (w/v) sodium dehydroacetate, MRS basal medium without carbohydrate, 5% (w/v) calf serum, and 0.45% (w/v) agar, pH5.4; • (4) Sucrose control group: containing 1.5% (w/v) sucrose, MRS basal medium without carbohydrate, 5% (w/v) calf serum, and 0.45% (w/v) agar, pH5.4; • (5) Isomaltose control group: containing 1.5% (w/v) isomaltose, MRS basal medium without carbohydrate, 5% (w/v) calf serum, and 0.45% (w/v) agar, pH5.4; and • (6) Isomaltulose control group: containing 1.5% (w/v) isomaltulose, MRS basal medium without carbohydrate, 5% (w/v) calf serum, and 0.45% (w/v) agar, pH5.4.
The semi-solid agar of each group is formulated essentially following the method described in Composition Example 1, then sterilized, added with calf serum, and packed in test tubes in a specification of 5 g/tube, for late use.
(2) Secretion specimens from BV patients: vaginal secretions from 2 BV patients; and the criteria of inclusion are: • (1) conforming to the Amsel clinical criteria of BV diagnosis, wherein the pH value of the vaginal secretions was >4.6; • (2) after smearing, Gram staining, and microscopical examination of vaginal secretions, Nugent score ≥7; and • (3) no other vaginosis, and no antimicrobial agent is used within two weeks.
(3) After sampling, the vaginal secretion specimens from BV patients meeting the criteria of inclusion were immediately inoculated to 3 semi-solid agars containing a carbohydrate and a preservative and 3 control agars at the bedside, and anaerobically incubated at 37° C. for […]. The pH values of the agar matrices are detected with a precise pH test paper after 30 or 32 hrs and 40 or 48 hrs of incubation.

Canidia albicans = assay: Metabolization of carbohydrates by Canidia albicans, residual carbohydrate by HPLC (Experimental Example 5); details: 72 hrs aerobic, 37° C., initial 1.5% (w/v) carbohydrate, pH 7.0, detection limit 0.05% (w/v)
Description: (1) Grouping in experiment:
(2) Test strain: 2 strains of Canidia albicans, isolated from patients with candidal vaginitis.
The supernatant was separated by centrifugation, and packed in a specification of 5 ml/tube. The carbohydrate content in each tube was detected by HPLC.

BV-associated bacteria [2] = assay: Acid production by BV-associated bacteria in carbohydrate containing gels, slightly aerobic incubation (Experimental Example 1); details: 1% (w/v) carbohydrate gel
From the text: (1) Grouping in experiment: • (1) Isomaltulose group: containing 1% (w/v) isomaltulose, MRS basal medium without carbohydrate, 5% (w/v) calf serum, and 0.5% (w/v) xanthan gum, pH5.4; • (2) Isomaltose group: containing 1% (w/v) isomaltose, MRS basal medium without carbohydrate, 5% (w/v) calf serum, and 0.5% (w/v) xanthan gum, pH5.4; • (3) Sucrose group: containing 1% (w/v) sucrose, MRS basal medium without carbohydrate, 5% (w/v) calf serum, and 0.5% (w/v) xanthan gum, pH5.4; and • (4) Maltose group: containing 1% (w/v) maltose, MRS basal medium without carbohydrate, 5% (w/v) calf serum, and 0.5% (w/v) xanthan gum, pH5.4.
The gel of each group was formulated essentially following the method described in Composition Example 1, then sterilized, added with calf serum, and packed in test tubes in a specification of 5 g/tube, for late use.
(2) Secretion specimens from BV patients: vaginal secretions from 5 BV patients; and the criteria of inclusion are: • (1) conforming to the Amsel clinical criteria of BV diagnosis, wherein the pH value of the vaginal secretions was >4.6; • (2) after smearing, Gram staining and microscopical examination of vaginal secretions, Nugent score ≥7; and • (3) no other vaginosis and no antimicrobial agent is used within two weeks.
(3) After sampling, the secretion specimens from BV patients meeting the criteria of inclusion were immediately inoculated to the above 4 gels containing a carbohydrate, and slightly aerobically incubated at 37° C. for 46 hrs. The pH values of the gel matrices are detected with a precise pH test paper respectively at 14 hrs, 36 hrs, and 46 hrs.

[3] = system: Lactobacilli in the secretions from BV patients; assay: Selective promotion of carbohydrate containing gels for the growth of Lactobacilli, 16s rDNA identification (Experimental Example 4); details: secretions from 20 BV patients; 1% (w/v) carbohydrate gel, 48 hrs slightly aerobic
Description: (§1) (3) After sampling, the vaginal secretion specimens from BV patients meeting the criteria of inclusion were immediately inoculated to the above 4 gels containing a carbohydrate, slightly aerobically incubated at 37° C. for 48 hrs, then transferred to a plate containing improved MRS with 1% (w/v) glucose and 5% (w/v) calf serum, slightly aerobically incubated for 20-48 hrs, isolated, purified and multiplied. The strain was identified by 16s rDNA sequencing.

[4] = system: Gardnerella vaginalis in the secretions from BV patients; assay: Selective promotion of carbohydrate containing gels for the growth of Gardnerella vaginalis (Experimental Example 4); details: secretions from 20 BV patients; 1% (w/v) carbohydrate gel, 48 hrs slightly aerobic
Description: as §1

[5] = Specimen 1, 14 hrs, slightly aerobic, 37° C., initial pH 5.4
[6] = Specimen 1, 46 hrs, slightly aerobic, 37° C., initial pH 5.4
[7] = Specimen 2, 14 hrs, slightly aerobic, 37° C., initial pH 5.4
[8] = Specimen 2, 46 hrs, slightly aerobic, 37° C., initial pH 5.4
[9] = Specimen 3, 14 hrs, slightly aerobic, 37° C., initial pH 5.4
[10] = Specimen 3, 36 hrs, slightly aerobic, 37° C., initial pH 5.4
[11] = Specimen 4, 14 hrs, slightly aerobic, 37° C., initial pH 5.4
[12] = Specimen 4, 36 hrs, slightly aerobic, 37° C., initial pH 5.4
[13] = Specimen 5, 14 hrs, slightly aerobic, 37° C., initial pH 5.4
[14] = Specimen 5, 36 hrs, slightly aerobic, 37° C., initial pH 5.4

Row | SMILES | pH of the semi-solid agar (BV-associated bacteria [1]; Specimen 1 (30 hrs)) | pH of the semi-solid agar (BV-associated bacteria [1]; Specimen 2 (32 hrs)) | residual carbohydrate content by HPLC (Canidia albicans; Canidia albicans 1) [g %] | residual carbohydrate content by HPLC (Canidia albicans; Canidia albicans 2) [g %] | pH of the gel (BV-associated bacteria [2]; Specimen 1, 0 hr (initial)) | pH of the gel (BV-associated bacteria [2]; [5]) | pH of the gel (BV-associated bacteria [2]; [6]) | pH of the gel (BV-associated bacteria [2]; Specimen 2, 0 hr (initial)) | pH of the gel (BV-associated bacteria [2]; [7]) | pH of the gel (BV-associated bacteria [2]; [8]) | pH of the gel (BV-associated bacteria [2]; Specimen 3, 0 hr (initial)) | pH of the gel (BV-associated bacteria [2]; [9]) | pH of the gel (BV-associated bacteria [2]; [10]) | pH of the gel (BV-associated bacteria [2]; Specimen 4, 0 hr (initial)) | pH of the gel (BV-associated bacteria [2]; [11]) | pH of the gel (BV-associated bacteria [2]; [12]) | pH of the gel (BV-associated bacteria [2]; Specimen 5, 0 hr (initial)) | pH of the gel (BV-associated bacteria [2]; [13]) | pH of the gel (BV-associated bacteria [2]; [14]) | samples positive for Lactobacilli, In total [3] | also measured
1 | OC[C@H]1O[C@H](OC[C@H]2OC(O)[C@H](O)[C@@H](O)[C@@H]2O)[C@H](O)[C@@H](O)[C@@H]1O (stereo partly drawn) [Isomaltose, isomaltose] | 3.8 | 3.8-4.1 | 0.74 | 0.76 | 5.4 | 3.8 | ≤3.8 | 5.4 | 4.1-4.4 | ≤3.8 | 5.4 | 4.1-4.4 | ≤3.8 | 5.4 | 4.4 | ≤3.8 | 5.4 | 4.1-4.4 | 4.1-4.4 | 9 | total number of samples positive for L. amylovorus incubation [3]: 1; total number of samples positive for L. crispatus incubation [3]: 1; total number of samples positive for L. gasseri incubation [3]: 2; total number of samples positive for L. iners incubation [3]: 0; total number of samples positive for L. jensenii incubation [3]: 4; total number of samples positive for L. mucosae incubation [3]: 1; number of samples positive for Gardnerella vaginalis [4]: 2 (15, 19); samples positive for Gardnerella vaginalis, In total [4]: 2
2 | OC[C@H]1O[C@H](OC[C@H]2OC(O)(CO)[C@@H](O)[C@@H]2O)[C@H](O)[C@@H](O)[C@@H]1O (stereo partly drawn) [Isomaltulose, isomaltulose] | 3.8 | 3.8 | 0.11 | 0.12 | 5.4 | ≤3.8 | ≤3.8 | 5.4 | 4.1 | ≤3.8 | 5.4 | 3.8-4.1 | ≤3.8 | 5.4 | 4.1 | ≤3.8 | 5.4 | 4.1-4.4 | ≤3.8 | 9 | total number of samples positive for L. amylovorus incubation [3]: 1; total number of samples positive for L. crispatus incubation [3]: 1; total number of samples positive for L. gasseri incubation [3]: 2; total number of samples positive for L. iners incubation [3]: 0; total number of samples positive for L. jensenii incubation [3]: 4^1; total number of samples positive for L. mucosae incubation [3]: 1; number of samples positive for Gardnerella vaginalis [4]: 2 (15, 19); samples positive for Gardnerella vaginalis, In total [4]: 2
3 | OC[C@H]1O[C@@](CO)(O[C@H]2O[C@H](CO)[C@@H](O)[C@H](O)[C@H]2O)[C@@H](O)[C@@H]1O [Sucrose, sucrose] | 3.8 | 3.8 | 1.04 | 0.95 | 5.4 | ≤3.8 | ≤3.8 | 5.4 | 4.4 | ≤3.8 | 5.4 | 4.8-5.1 | 4.4-4.6 | 5.4 | 4.8-5.1 | ≤3.8 | 5.4 | 4.4-4.6 | 4.4-4.6 | 9 | total number of samples positive for L. amylovorus incubation [3]: 1; total number of samples positive for L. crispatus incubation [3]: 1; total number of samples positive for L. gasseri incubation [3]: 2; total number of samples positive for L. iners incubation [3]: 0; total number of samples positive for L. jensenii incubation [3]: 4; total number of samples positive for L. mucosae incubation [3]: 1; number of samples positive for Gardnerella vaginalis [4]: 3 (8, 15, 19); samples positive for Gardnerella vaginalis, In total [4]: 3
